According to PMC9246869, “Allosteric inhibition of PPM1D serine/threonine phosphatase via an altered conformational state” (Nature Communications, 2022):
“And” between values parts separate entries of the source, which are not always exact repeats. Identical values can stand only once.

Tests used:
PPM1D1–420 [1] = molecular target: T1, PPM1D1–420 (Homo sapiens, UniProt O15297); assay: Surface plasmon resonance (SPR); type: binding
T1 construct: PPM1D1–420 was PCR-amplified from the synthesized gene with BsaI sites; His(6)-SUMO (N, cleaved yes); made in house; host or cells: E. coli BL21 (DE3)
T1 sequence (O15297 1-420): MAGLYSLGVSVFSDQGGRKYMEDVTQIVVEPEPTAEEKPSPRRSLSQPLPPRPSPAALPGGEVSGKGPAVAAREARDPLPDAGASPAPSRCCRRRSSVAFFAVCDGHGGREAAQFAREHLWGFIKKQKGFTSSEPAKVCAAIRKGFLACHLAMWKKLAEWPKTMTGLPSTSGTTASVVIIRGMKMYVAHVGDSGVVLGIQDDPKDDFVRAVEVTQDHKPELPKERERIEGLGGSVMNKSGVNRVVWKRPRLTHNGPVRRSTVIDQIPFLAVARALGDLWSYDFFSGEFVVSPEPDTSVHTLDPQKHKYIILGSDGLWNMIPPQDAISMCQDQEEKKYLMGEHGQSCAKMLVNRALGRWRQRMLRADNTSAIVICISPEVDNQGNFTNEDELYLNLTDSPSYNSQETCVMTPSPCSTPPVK
Procedure: SPR was carried out on the Biacore S200 (GE Healthcare) using Series S sensor chip NTA (GE BR-1005-32). The preparation of the chip surface was conducted according to the manufacturer’s indications. The running buffer contained 50 mM Tris (pH 7.5), 50 mM NaCl, 1 mM MgCl2, 0.5 mM TCEP, 0.005% (v/v) P20 surfactant, and 2% DMSO. PPM1D1–420 and PPM1D∆Flap were run under single-cycle mode due to the slow-off-rate kinetics. The two proteins were immobilized on the chip surface in flow cells 2 and 3 with a signal of ~1500–2000 RU at a rate of 5 μL/min while flow cell 1 was left blank as a reference. The running buffer was injected three times followed by the GSK2830371 analyte in solution. Injections were carried out at a flow rate of 50 μL/min with the analyte in a concentration series of 5-point, 3-fold ending at 400 nM top dose. The association and dissociation phases were monitored for 90 s and 600 s, respectively. Collected data were evaluated using the Biacore S200 Evaluation Software under 1:1 binding mode. PPM1D∆Hinge was run under multi-cycle mode due to its fast-on/fast-off kinetics. The protein was immobilized to give a signal of ~ 3000 RU. GSK2830371 analyte in solution was injected at a flow rate of 90 μL/min in a 10-pt, 2-fold concentration series ending at 15 μM top dose. The association and dissociation phases were monitored for 45 s and 150 s, respectively. Since GSK2830371 had issues with solubility/aggregation at high concentrations that caused artifacts in sensorgrams, only steady-state analysis was performed to extract Kd.

Solubility = type: physicochemical
PPM1D1–420 [2] = molecular target: T1, PPM1D1–420; assay: p38 MAPK enzymatic assay (LC/MS, dephosphorylation of T180); type: biochemical; settings: PPM1D1–420; full length p38 MAPK substrate, LC/MS
Procedure: To generate the double phosphorylated form of p38 MAPK for the LC/MS enzymatic PPM1D assay, 20 µM p38 MAPK was incubated with 100 nM MKK6 in 50 mM HEPES pH 7.4, 10 mM ATP, 40 mM MgCl2, and 100 µM TCEP at RT for 2 h. The reaction mixture was diluted 2-fold with 20 mM HEPES pH 7.4, 300 mM NaCl, 100 µM TCEP, and 1 mM MgCl2 and passed over a Superdex 200 26/600 column equilibrated with 20 mM HEPES pH 7.4, 150 mM NaCl, 100 µM TCEP, and 1 mM MgCl2 to remove excess ATP and MKK6 from the phosphorylated p38 MAPK (p38PP) protein. The protein was concentrated and stored in aliquots for single time usage at −80 °C.
The enzymatic activity of the PPM1D constructs was measured by quantifying the dephosphorylation of the substrate protein p38PP by LC/MS. Assays were run in 384-well plates (Axygen; #P-384-120SQ-C) in a final volume of 80 µL per well. The buffer consisted of 20 mM HEPES, 20 mM NaCl, 20 mM MgCl2 and 0.1 mM TCEP, at a pH of 7.5. The reaction was initiated by addition of the p38PP substrate to a solution containing 10 nM PPM1D to a final concentration of 300 nM for p38PP. The plate was then incubated at room temperature and the reaction quenched after 15 min increments with formic acid to a final concentration of 6% (v/v) up to 120 min. For IC50 measurements, the GSK2830371 compound was pre-incubated with the PPM1D constructs in a 2% DMSO-containing buffer for 10 min prior to the addition of the substrate and the reactions were quenched after 2 h. In both experiments, BSA was added to a final concentration of 0.2 µM during the quench step as a carrier protein and injection control for the LC/MS. The plate was then sealed and spun down at 1500 × g for 1 min prior to LC/MS analysis. Plates were analyzed within the same day of the quench step.
Substrate and product detection was achieved by multiple-reaction monitoring (MRM) using a Waters Acquity UPLC chromatography system connected to an Xevo TQ-XS mass spectrometer (Waters, Milford, MA). Source parameters were set as follows: polarity ES+, capillary 2.0 kV, cone voltage, 50 V; collision energy, 5 V; cone gas flow, 200 L/h; collision gas flow, 0.16 mL/min; source temperature, 150 °C; desolvation temperature, 500 °C; and desolvation gas flow, 800 L/h. Analytes were separated using an Agilent PLRP-S Reversed-Phase column (5 µm; 2.1 × 50 mm, 300 Å Agilent Technologies, Santa Clara, CA) at 60 °C. Sample storage temperature was set to 15 °C. Mobile phases consisted of 0.1% (v/v) formic acid (Millipore EMSURE) in LC/MS grade water (JTBaker) and 0.1% v/v formic acid in acetonitrile (Honeywell). Initial column conditions were set to […]. Proteins were eluted using a 1.5 min gradient of 5–98% acetonitrile at 0.4 ml/min. MassLynx and TargetLynx software (Waters, version 4.2) were used for sample acquisition and data analysis, respectively. Analytes were quantified by integration of peak areas under the curve using the transitions 941.10 to 941.05 m/z for P38PP (substrate) and 939.10 to 939.09 m/z for P38P (product). Areas were normalized for instrumental variation by dividing by the BSA peak area (1209.23 to 1209.2 m/z transition) measured in the same well.

PPM1D1–420 [3] = molecular target: T1, PPM1D1–420; assay: Isothermal titration calorimetry (ITC); type: binding; settings: PPM1D1–420; 25 °C
Procedure: Assessments of the analog of GSK2830371 (analog 1d) binding to wild-type and mutant proteins were conducted using an Auto-iTC200 microcalorimeter (Malvern) (see section on synthesis of analog 1d below). The protein was dialyzed extensively into 25 mM HEPES (pH 7.4), 150 mM NaCl, 10 mM MgCl2 and 1 mM TCEP. The dialyzed protein was used to prepare fresh working solutions of protein (20 µM) and analog 1d (200 µM) in 2% DMSO (v/v) in the same buffer. Titrations were performed at 25 °C and consisted of a single initial injection of 0.4 µL, followed by 19 injections of 2 µL of compound into a sample cell containing wild-type or mutant PPM1D, with an interval of 150 s between successive injections. The reference power and stirring speed were set at […] and 1000 RPM, respectively. Heat of dilution and mixing were obtained from injections of analog 1d into ITC buffer lacking protein and subtracted from the integrated data before curve fitting. Thermodynamic data were analyzed using Origin 7.0 software and fitted by non-linear regression to the model for a single binding site.

NCCCCNC(=O)[C@H](CC1CCCCC1)NC(=O)c1ccc(CNc2cc(Cl)ccn2)s1 [analog 1d]
Kd (PPM1D1–420 [1]; PPM1D1–420, single-cycle kinetics for GSK2830371, read-out: Kd (SPR)): 2.7 nM
koff (PPM1D1–420 [1]; SPR kinetics fit, Sup Fig 3B, read-out: koff): 0.0015 s⁻¹
kon (PPM1D1–420 [1]; SPR kinetics fit, Sup Fig 3B, read-out: kon): 578000 M⁻¹ s⁻¹
Steady state curve response (PPM1D1–420 [1]; SPR steady state, [1d] (nM) 4.94E-09): 2.128
solubility (Solubility): > 100 µM
IC50 (PPM1D1–420 [2]): 22.4 nM
Kd (PPM1D1–420 [3]): 10.9 nM and 10 nM
